# pIC50: −log10 of the molar value.
# What was measured:
# [1] = biological target: T1, Serotonin 2 (5-HT2) receptor (Rattus norvegicus, UniProt P30994+P08909+P14842); assay: Inhibition of [3H]ketanserin binding to […] 5-hydroxytryptamine 2 receptor; assay type: protein assay
# [2] = biological target: D(2) dopamine receptor (Rattus norvegicus) (UniProt P61169); assay: Tested in vivo for induction of catalepsy against D2 receptor in rats; assay type: functional, organism-based
# [3] = biological target: D(2) dopamine receptor (Rattus norvegicus, UniProt P61169); assay: Tested for the inhibition of [3H]spiperone binding to dopamine D2 receptor
# Chain of D(2) dopamine receptor (P61169 whole entry): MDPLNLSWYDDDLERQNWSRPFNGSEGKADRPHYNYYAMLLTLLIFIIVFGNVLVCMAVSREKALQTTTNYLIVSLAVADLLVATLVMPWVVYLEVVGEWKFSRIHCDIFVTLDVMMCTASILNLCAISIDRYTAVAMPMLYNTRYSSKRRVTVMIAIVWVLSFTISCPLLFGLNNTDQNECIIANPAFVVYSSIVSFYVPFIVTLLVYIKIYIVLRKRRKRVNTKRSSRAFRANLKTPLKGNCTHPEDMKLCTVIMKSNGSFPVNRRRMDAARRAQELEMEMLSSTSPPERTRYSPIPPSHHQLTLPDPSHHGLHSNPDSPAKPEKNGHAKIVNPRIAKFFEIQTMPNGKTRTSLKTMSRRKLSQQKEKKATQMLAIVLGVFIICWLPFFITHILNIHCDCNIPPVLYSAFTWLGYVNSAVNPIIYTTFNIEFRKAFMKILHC
# [4] = species: Rattus norvegicus; assay: Inhibition of quipazine induced head twitches in rats; assay type: functional
# [5] = biological target: D(2) dopamine receptor (Mus musculus) (UniProt P61168); assay: Tested in vivo for methyl phenidate-induced gnawing behavior antagonistic activity against dopamine D2 receptor in mice; assay type: functional, organism-based
# Chain of D(2) dopamine receptor (Mus musculus) (P61168 whole entry): as the sequence (P61169 whole entry) above, with A29P counted along it
# [6] = biological target: T1, Serotonin 2 (5-HT2) receptor; assay: Inhibition of [3H]ketanserin binding to rat 5-hydroxytryptamine 2 receptors.; assay type: protein assay
# [7] = biological target: D(2) dopamine receptor (Mus musculus) (UniProt P61168); assay: (§1) Compound was tested in vivo for methyl phenidate-induced gnawing behavior antagonistic activity against dopamine D-2 receptor in mice; assay type: functional, organism-based
# [8] = test system: Rattus norvegicus; assay: Compound was tested for the inhibition of quipazine-induced head twitches 24 hours after subcutaneous administration; assay type: functional; conditions: sc
# [9] = biological target: D(2) dopamine receptor (Rattus norvegicus) (UniProt P61169); assay: Compound was tested in vivo for induction of catalepsy against D-2 receptor in rats; assay type: organism-based
# [10] = biological target: D(2) dopamine receptor (Rattus norvegicus) (UniProt P61169); assay: as §1; assay type: functional, organism-based
# [11] = biological target: T2, Serotonin 2 (5-HT2) receptor (Rattus norvegicus) (UniProt P30994+P08909+P14842); assay: Compound was tested for the inhibition of quipazine binding at 5-HT2 receptor; assay type: protein assay
# T2 sequence (P08909 whole entry, looked up): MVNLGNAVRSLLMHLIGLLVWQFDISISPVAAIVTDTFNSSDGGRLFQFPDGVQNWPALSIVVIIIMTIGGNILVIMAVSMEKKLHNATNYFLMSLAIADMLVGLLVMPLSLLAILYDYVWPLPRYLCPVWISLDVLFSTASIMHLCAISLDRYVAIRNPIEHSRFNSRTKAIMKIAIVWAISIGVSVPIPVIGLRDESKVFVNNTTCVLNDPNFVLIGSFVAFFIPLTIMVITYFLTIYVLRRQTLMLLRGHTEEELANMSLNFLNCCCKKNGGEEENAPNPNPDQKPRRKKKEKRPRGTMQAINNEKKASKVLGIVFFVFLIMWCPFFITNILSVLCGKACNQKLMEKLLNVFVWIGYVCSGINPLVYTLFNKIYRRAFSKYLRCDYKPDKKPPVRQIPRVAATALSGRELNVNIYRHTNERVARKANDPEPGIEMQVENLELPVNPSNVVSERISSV
# T2 sequence (P14842 whole entry, looked up): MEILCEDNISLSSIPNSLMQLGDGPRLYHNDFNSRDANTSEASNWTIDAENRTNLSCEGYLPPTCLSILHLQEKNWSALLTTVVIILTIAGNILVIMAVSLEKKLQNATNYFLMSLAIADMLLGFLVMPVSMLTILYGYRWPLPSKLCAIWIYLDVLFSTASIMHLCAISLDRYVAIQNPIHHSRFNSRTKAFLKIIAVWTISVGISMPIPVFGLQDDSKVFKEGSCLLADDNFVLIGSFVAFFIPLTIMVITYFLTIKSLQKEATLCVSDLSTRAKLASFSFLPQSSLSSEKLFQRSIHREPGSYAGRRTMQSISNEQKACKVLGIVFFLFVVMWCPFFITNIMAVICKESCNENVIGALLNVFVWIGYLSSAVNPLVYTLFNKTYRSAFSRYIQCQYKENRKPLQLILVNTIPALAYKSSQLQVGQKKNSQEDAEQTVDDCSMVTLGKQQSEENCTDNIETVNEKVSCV
# T2 sequence (P30994 whole entry, looked up): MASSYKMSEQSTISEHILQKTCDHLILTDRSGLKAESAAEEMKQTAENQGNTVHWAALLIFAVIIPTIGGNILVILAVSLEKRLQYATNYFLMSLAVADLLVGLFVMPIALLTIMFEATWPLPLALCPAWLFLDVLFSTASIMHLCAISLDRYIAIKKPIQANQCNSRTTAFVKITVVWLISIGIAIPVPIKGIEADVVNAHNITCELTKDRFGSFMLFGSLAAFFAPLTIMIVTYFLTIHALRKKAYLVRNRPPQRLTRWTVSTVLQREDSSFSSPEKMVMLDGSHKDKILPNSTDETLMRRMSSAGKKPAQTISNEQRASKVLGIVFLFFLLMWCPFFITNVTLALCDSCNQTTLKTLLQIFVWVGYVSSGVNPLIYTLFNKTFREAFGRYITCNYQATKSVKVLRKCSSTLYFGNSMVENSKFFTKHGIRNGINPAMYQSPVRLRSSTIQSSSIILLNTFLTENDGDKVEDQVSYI
# [12] = biological target: T2, Serotonin 2 (5-HT2) receptor (Rattus norvegicus); assay: Compound was tested for the inhibition of quipazine binding at 5-hydroxytryptamine 2 receptor; assay type: protein assay
# Chain of D(2) dopamine receptor (Rattus norvegicus) (P61169 whole entry): as the sequence (P61169 whole entry) above
Compound,ED50 [2] [µmol/kg],pIC50 [3],ED50 [4] [µmol/kg],ED50 [5] [µmol/kg],IC50 [6] [nM],also measured
CN1CCN(c2cn(-c3ccc(F)cc3)c3ccc(Cl)cc23)CC1,0.23,9.00,0.041,0.12,–,IC50 [1]: 0.3 nM
Fc1ccc(-n2cc(C3=CCNCC3)c3cc(C(F)(F)F)ccc32)cc1,> 14,–,> 0.86,2.1,–,–
CN1CCN(CCN2CCC(c3cn(-c4ccc(F)cc4)c4ccc(Cl)cc34)CC2)C1=O,31,8.19,0.021,2.6,0.24,–
O=C1N(CCN2CCC(c3cn(-c4ccc(F)cc4)c4ccc(Cl)cc34)CC2)CCN1c1ccccc1,–,7.04,> 0.15,–,4.4,ED50 [7]: > 77 µmol/kg
CN1CCN(C2=Nc3cc(Cl)ccc3Nc3ccccc32)CC1 [CLOZAPINE],–,–,–,–,–,ED50 [8]: > 31 µmol/kg
OCCN1CCN(c2cn(-c3ccc(F)cc3)c3ccc(C(F)(F)F)cc23)CC1,0.06,–,0.023,0.079,–,IC50 [1]: 1.4 nM
CN1CC=C(c2cn(-c3ccc(F)cc3)c3ccc(Cl)cc23)CC1,0.085,8.96,0.058,0.085,–,IC50 [1]: 0.53 nM; ED50 [8]: > 0.19 µmol/kg
O=C1NCCN1CCN1CCC(c2c[nH]c3ccc(Cl)cc23)CC1,–,6.09,> 14,–,25,ED50 [9]: 47 µmol/kg
O=C1NCCN1CCN1CC=C(c2cn(-c3ccc(F)cc3)c3ccc(Cl)cc23)CC1,2.2,8.64,0.22,2,–,ED50 [8]: 1.2 µmol/kg
O=C1NCCN1CCN1CCC(c2cn(-c3ccc(F)cc3)c3ccc(Cl)cc23)CC1 [SERTINDOLE],> 91,–,0.052,> 180,–,ED50 [8]: 0.03 µmol/kg
O=C1NCCN1CCN1CCC(c2cn(-c3ccc(F)cc3)c3ccccc23)CC1,> 98,7.74,0.036,> 98,0.082,ED50 [8]: 0.082 µmol/kg
OCCN1CCC(c2cn(-c3ccc(F)cc3)c3ccc(Cl)cc23)CC1,3.8,8.35,0.034,1.5,2.7,–
COc1ccc2c(c1)c(C1CCN(CCN3CCNC3=O)CC1)cn2-c1ccc(F)cc1,> 46,7.62,0.77,> 76,1,–
OCCN1CCN([C@@H]2C[C@@H](c3ccc(F)cc3)c3ccc(C(F)(F)F)cc32)CC1 (racemic) [TEFLUDAZINE],0.12,–,0.029,0.2,2.8,–
O=C1NCCN1CCCCCCN1CCC(c2cn(-c3ccc(F)cc3)c3ccc(Cl)cc23)CC1,20,8.66,> 2.2,2.7,–,IC50 [1]: 2.5 nM
O=C1NCCN1CCCCN1CCC(c2cn(-c3ccc(F)cc3)c3ccc(Cl)cc23)CC1,–,7.11,> 2.2,> 72,59,–
N#Cc1ccc2c(c1)c(C1CCN(CCN3CCNC3=O)CC1)cn2-c1ccc(F)cc1,–,8.66,–,34,1.3,–
O=C1NCCN1CCCCCN1CCC(c2cn(-c3ccc(F)cc3)c3ccc(Cl)cc23)CC1,–,8.38,1.5,14,1.5,–

Compound,ED50 [2] [µmol/kg],pIC50 [3],ED50 [4] [µmol/kg],ED50 [5] [µmol/kg],IC50 [6] [nM],also measured
N#Cc1ccc2c(c1)c(C1=CCN(CCN3CCNC3=O)CC1)cn2-c1ccc(F)cc1,–,8.68,–,–,3.2,ED50 [9]: 0.37 µmol/kg
Fc1ccc(-n2cc(C3=CCNCC3)c3cc(Cl)ccc32)cc1,> 61,–,1.5,–,–,ED50 [10]: 17 µmol/kg
O=C1NCCN1CCN1CCC(c2cn(-c3ccc(F)cc3)c3ccc(Cl)cc23)(c2cn(-c3ccc(F)cc3)c3ccc(Cl)cc23)CC1,–,–,–,–,–,IC50 [1]: 120 nM
O=C1NCCN1CCN1CCC(c2cn(-c3ccc(F)cc3)c3ccc(F)cc23)CC1,> 78,8.33,0.052,> 78,0.48,ED50 [8]: 0.0097 µmol/kg
CN1CC=C(c2cn(-c3ccc(F)cc3)c3ccccc23)CC1,3.6,8.80,0.15,1.3,–,–
O=C1NCCN1CCN1CCC(c2cn(-c3ccc(F)cc3)c3ccc(C(F)(F)F)cc23)CC1,45,8.72,0.11,22,1,–
Cc1ccc2c(c1)c(C1CCN(CCN3CCNC3=O)CC1)cn2-c1ccc(F)cc1,> 91,8.43,0.0083,98,0.3,–
CC(C)N1CCN(CCN2CCC(c3cn(-c4ccc(F)cc4)c4ccc(Cl)cc34)CC2)C1=O,> 69,7.92,0.046,> 69,2.1,–
O=C1NCCN1CCN1CCN(c2cn(-c3ccc(F)cc3)c3ccc(Cl)cc23)CC1,4.5,7.68,0.015,7.8,–,IC50 [1]: 4.4 nM
CN1CC=C(c2cn(-c3ccc(F)cc3)c3ccc(F)cc23)CC1,0.64,–,0.15,0.44,–,IC50 [1]: 3 nM
O=C1NCCN1CCN1CCC(c2cn(-c3ccc(F)cc3)c3ccc(Br)cc23)CC1,> 41,8.42,0.032,> 82,1.3,–
O=C1NCCN1CCCN1CCC(c2cn(-c3ccc(F)cc3)c3ccc(Cl)cc23)CC1,11,8.47,1.8,57,1,–
O=C1N(CCN2CCC(c3cn(-c4ccc(F)cc4)c4ccc(Cl)cc34)CC2)CCN1C1CCCC1,–,–,–,–,–,ED50 [11]: > 2.1 µmol/kg; ED50 [7]: > 67 µmol/kg
Cc1nc2n(c(=O)c1CCN1CCC(c3noc4cc(F)ccc34)CC1)CCCC2 [RISPERIDONE],–,–,–,–,–,ED50 [8]: > 3 µmol/kg
CS(=O)(=O)c1ccc2c(c1)c(C1CCN(CCN3CCNC3=O)CC1)cn2-c1ccc(F)cc1,> 17,8.24,54,> 67,8,–
O=C1NCCN1CCN1CC=C(c2cn(-c3ccc(F)cc3)c3ccc(C(F)(F)F)cc23)CC1,0.49,–,> 0.66,0.37,–,ED50 [12]: 0.14 µmol/kg
CN1CC=C(c2cn(-c3ccc(F)cc3)c3ccc([N+](=O)[O-])cc23)CC1,0.025,9.12,0.0091,0.022,–,IC50 [1]: 1.9 nM
Fc1ccc(-n2cc(C3CCNCC3)c3cc(Cl)ccc32)cc1,–,7.64,1.5,–,3.8,ED50 [7]: > 90 µmol/kg

# — ChEMBL document CHEMBL1125407, “Noncataleptogenic, centrally acting dopamine D-2 and serotonin 5-HT2 antagonists within a series of 3-substituted 1-(4-fluorophenyl)-1H-indoles” (J Med Chem, 1992)
